Target: T1, human Cav3.1 (Homo sapiens, UniProt O43497)
T1 construct: expressed in transfected cells; host or cells: HEK293 FlpIn T-Rex cells (Invitrogen)
Assay: Whole-cell patch-clamp electrophysiology, Cav3.1
Type: cell-based
Procedure: All whole-cell voltage-clamp recordings from HEK293 FlpIn T-Rex cells stably transfected with human Cav3.1 were performed at room temperature. At least 24 h prior to experiments, cells were detached from flasks using trypsin/EDTA and plated into 10 cm sterile tissue culture dishes containing 10 mL of supplemented DMEM and 10–15 glass coverslips (12 mm diameter, ProScitech, QLD, Australia). Culture dishes were then kept overnight in same conditions as flasks to allow cells to adhere to coverslips. They were then transferred to a 30°C/5% CO2 incubator to inhibit cell proliferation until ready to be used for electrophysiology experiments. At this stage, channel expression was induced with tetracycline (2 μg/mL, Sigma-Aldrich) 8–24 h prior to recording cells.
External recording solutions contained (in mM): 114 CsCl, 5 BaCl2, 1 MgCl2, 10 HEPES, 10 glucose, adjusted to pH 7.4 with CsOH. The internal patch pipette solution contained (in mM): 126.5 CsMeSO4, 2 MgCl2, 11 EGTA, 10 HEPES adjusted to pH 7.3 with CsOH. […] Liquid junction potentials for the above solutions were calculated before experiments using pClamp 10 software and corrected during experiments. […] Currents were elicited from a holding potential of −100 mV and were measured by conventional whole-cell patch clamp techniques using an Axopatch 200B amplifier in combination with Clampex 9.2 software (Molecular Devices, Sunnyvale, CA). […]

T1 sequence (O43497 whole entry): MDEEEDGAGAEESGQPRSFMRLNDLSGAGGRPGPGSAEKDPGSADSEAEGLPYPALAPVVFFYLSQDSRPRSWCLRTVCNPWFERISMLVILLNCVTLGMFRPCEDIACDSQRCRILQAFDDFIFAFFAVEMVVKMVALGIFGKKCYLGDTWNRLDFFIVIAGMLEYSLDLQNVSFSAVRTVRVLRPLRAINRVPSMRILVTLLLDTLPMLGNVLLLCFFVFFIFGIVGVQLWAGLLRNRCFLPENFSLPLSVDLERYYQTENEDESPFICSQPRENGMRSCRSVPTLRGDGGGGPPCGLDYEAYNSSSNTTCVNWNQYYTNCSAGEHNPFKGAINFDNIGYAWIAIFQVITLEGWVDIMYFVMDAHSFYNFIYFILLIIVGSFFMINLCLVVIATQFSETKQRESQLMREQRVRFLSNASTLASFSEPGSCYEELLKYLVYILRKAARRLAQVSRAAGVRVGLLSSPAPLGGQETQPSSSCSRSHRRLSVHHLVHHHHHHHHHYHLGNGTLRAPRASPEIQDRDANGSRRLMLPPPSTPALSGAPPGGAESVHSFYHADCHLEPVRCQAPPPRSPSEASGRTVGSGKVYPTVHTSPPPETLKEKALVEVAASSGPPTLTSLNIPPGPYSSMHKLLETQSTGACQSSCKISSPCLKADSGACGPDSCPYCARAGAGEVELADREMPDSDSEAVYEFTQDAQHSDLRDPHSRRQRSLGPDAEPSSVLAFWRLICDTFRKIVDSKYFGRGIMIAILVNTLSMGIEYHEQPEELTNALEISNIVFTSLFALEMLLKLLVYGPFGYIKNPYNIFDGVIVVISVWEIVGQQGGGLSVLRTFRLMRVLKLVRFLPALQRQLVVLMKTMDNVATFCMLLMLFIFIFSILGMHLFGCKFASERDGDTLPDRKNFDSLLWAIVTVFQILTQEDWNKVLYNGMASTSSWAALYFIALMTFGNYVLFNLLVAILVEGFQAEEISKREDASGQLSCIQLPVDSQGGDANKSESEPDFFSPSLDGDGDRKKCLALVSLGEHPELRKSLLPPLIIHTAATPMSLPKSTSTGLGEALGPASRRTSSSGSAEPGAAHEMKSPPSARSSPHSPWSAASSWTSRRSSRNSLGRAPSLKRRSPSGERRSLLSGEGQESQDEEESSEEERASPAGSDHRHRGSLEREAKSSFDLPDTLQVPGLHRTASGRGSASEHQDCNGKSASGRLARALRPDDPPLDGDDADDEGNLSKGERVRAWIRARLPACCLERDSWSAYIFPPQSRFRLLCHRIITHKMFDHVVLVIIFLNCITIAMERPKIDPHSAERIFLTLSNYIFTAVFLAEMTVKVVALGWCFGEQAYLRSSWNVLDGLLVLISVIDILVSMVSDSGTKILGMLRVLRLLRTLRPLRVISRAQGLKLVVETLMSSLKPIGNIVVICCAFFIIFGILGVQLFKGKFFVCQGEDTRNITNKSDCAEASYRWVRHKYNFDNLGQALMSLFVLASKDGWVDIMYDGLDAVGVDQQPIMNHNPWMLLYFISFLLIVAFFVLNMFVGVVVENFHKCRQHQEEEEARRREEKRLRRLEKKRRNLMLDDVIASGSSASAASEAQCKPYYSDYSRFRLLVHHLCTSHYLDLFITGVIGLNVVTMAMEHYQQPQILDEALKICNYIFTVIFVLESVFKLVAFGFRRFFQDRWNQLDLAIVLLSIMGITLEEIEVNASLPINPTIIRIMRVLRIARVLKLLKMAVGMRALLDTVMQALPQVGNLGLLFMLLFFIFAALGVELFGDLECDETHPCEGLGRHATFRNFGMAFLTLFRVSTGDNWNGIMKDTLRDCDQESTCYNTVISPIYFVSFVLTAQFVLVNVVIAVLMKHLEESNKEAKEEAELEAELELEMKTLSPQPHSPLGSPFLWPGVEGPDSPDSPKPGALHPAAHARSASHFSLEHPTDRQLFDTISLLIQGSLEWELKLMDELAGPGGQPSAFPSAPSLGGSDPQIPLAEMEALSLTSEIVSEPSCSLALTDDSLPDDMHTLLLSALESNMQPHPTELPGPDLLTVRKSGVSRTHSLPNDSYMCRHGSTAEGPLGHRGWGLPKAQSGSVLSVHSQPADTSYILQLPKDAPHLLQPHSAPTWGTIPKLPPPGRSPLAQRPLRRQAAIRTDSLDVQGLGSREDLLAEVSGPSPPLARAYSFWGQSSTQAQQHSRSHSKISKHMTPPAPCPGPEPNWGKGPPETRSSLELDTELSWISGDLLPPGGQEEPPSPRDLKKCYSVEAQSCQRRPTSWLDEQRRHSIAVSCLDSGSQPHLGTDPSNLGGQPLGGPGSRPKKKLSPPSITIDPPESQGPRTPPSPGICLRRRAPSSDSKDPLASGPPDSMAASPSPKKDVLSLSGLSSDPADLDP

With `CCCCCn1cc(C(=O)N2CCN(C(=O)OC(C)(C)C)CC2)c2ccccc21` [SB2193] the “potency in patch clamp less than that determined by the FLIPR assay” value (Cav3.1, patch clamp vs FLIPR) was “approximately 4 fold” and the IC50 (whole-cell patch clamp, n = 7–8, read-out: Cav3.1 pIC50 (converted)) was 3.55 µM.

Source: publication PMC10110893, “[…]-derived synthetic cannabinoids inhibit T-type calcium channels with divergent effects on seizures in rodent models of epilepsy” (Frontiers in Physiology, 2023)
